Assay results from patent US20150005281A1, “PYRIMIDINE-2,4-DIAMINE DERIVATIVES AS KINASE INHIBITORS” (Cellzome Limited, priority 2011, published 2015).
pIC50: −log10 of the molar value.

Columns and labels:
[1] = NOD mouse; cited from earlier work
[2] = Cetkovic-Cvrlje and Ucken, 2004; cited from earlier work
[3] = Changelian et al., 2003; cited from earlier work
[4] = biological target: T1, JAK1 (Homo sapiens, UniProt P23458); assay: Kinobeads assay with immunodetection, JAK1; assay type: binding; conditions: for pIC50: Kinobeads assay, mixed Molt4/Ramos lysate, read-out: Inhibition values (IC50) JAK1
T1 construct: endogenous in cells; host or cells: Molt4 (ATCC CRL-1582) and Ramos (ATCC CRL-1596) cells; mixed lysate 1:2
Outline: (§1)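 Lysates of Molt4 and Ramos cells, combined 1:2 and diluted to 10 mg/mL in Tris pH 7.4 buffer with 0.8% NP40, are incubated for 3 h in the cold with compound and the affinity matrix. Beads are washed, eluted in SDS buffer, and kinases are quantified by infrared immunodetection to give IC50s.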

[5] = biological target: T2, JAK2 (Homo sapiens, UniProt O60674); assay: Kinobeads assay with immunodetection, JAK2; assay type: binding; conditions: mixed Molt4/Ramos lysate, read-out: Inhibition values (IC50) JAK2
T2 construct: endogenous in cells; host or cells: Molt4 (ATCC CRL-1582) and Ramos (ATCC CRL-1596) cells; mixed lysate 1:2
Outline: as §1

[6] = biological target: T3, JAK3 (Homo sapiens, UniProt P52333); assay: Kinobeads assay with immunodetection, JAK3; assay type: binding; conditions: Kinobeads assay, mixed Molt4/Ramos lysate; read-out: Inhibition values (IC50) JAK3
T3 construct: endogenous in cells; host or cells: Molt4 (ATCC CRL-1582) and Ramos (ATCC CRL-1596) cells; mixed lysate 1:2
T3 sequence (P52333 1-1124): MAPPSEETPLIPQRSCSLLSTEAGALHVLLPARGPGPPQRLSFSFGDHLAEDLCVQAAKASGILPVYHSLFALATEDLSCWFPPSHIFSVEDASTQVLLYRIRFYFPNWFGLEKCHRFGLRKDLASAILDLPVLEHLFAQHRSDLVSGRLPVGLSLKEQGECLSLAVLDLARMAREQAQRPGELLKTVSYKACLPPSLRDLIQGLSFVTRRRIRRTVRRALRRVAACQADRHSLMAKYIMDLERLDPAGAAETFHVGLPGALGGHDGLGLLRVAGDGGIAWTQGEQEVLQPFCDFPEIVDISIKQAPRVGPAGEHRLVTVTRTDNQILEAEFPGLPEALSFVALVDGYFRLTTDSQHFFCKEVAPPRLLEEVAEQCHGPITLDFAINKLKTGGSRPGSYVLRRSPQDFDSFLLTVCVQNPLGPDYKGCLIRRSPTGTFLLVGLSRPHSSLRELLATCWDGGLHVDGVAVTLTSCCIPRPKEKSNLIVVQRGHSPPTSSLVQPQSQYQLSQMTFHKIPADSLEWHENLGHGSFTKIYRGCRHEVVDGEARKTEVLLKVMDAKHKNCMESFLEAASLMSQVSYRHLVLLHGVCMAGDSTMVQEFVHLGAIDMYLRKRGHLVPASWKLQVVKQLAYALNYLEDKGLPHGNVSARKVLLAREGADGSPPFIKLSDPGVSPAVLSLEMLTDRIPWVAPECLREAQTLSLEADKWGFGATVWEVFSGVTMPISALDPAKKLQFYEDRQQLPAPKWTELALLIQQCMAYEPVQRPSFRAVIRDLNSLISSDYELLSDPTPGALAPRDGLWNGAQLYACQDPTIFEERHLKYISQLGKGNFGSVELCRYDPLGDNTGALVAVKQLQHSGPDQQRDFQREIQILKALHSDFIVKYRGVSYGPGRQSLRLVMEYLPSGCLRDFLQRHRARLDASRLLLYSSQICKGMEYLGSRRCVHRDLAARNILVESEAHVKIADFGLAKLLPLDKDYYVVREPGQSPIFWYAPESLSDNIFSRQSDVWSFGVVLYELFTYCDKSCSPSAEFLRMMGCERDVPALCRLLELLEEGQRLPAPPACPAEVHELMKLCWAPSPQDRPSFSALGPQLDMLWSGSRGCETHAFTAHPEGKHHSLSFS
Outline: as §1

[7] = biological target: T4, TYK2 (Homo sapiens, UniProt P29597); assay: Kinobeads assay with immunodetection, TYK2; assay type: binding; conditions: Kinobeads assay, mixed Molt4/Ramos lysate; read-out: Inhibition values (IC50) Tyk2
T4 construct: endogenous in cells; host or cells: Molt4 (ATCC CRL-1582) and Ramos (ATCC CRL-1596) cells; mixed lysate 1:2
Outline: as §1

T4 sequence (P29597 whole entry): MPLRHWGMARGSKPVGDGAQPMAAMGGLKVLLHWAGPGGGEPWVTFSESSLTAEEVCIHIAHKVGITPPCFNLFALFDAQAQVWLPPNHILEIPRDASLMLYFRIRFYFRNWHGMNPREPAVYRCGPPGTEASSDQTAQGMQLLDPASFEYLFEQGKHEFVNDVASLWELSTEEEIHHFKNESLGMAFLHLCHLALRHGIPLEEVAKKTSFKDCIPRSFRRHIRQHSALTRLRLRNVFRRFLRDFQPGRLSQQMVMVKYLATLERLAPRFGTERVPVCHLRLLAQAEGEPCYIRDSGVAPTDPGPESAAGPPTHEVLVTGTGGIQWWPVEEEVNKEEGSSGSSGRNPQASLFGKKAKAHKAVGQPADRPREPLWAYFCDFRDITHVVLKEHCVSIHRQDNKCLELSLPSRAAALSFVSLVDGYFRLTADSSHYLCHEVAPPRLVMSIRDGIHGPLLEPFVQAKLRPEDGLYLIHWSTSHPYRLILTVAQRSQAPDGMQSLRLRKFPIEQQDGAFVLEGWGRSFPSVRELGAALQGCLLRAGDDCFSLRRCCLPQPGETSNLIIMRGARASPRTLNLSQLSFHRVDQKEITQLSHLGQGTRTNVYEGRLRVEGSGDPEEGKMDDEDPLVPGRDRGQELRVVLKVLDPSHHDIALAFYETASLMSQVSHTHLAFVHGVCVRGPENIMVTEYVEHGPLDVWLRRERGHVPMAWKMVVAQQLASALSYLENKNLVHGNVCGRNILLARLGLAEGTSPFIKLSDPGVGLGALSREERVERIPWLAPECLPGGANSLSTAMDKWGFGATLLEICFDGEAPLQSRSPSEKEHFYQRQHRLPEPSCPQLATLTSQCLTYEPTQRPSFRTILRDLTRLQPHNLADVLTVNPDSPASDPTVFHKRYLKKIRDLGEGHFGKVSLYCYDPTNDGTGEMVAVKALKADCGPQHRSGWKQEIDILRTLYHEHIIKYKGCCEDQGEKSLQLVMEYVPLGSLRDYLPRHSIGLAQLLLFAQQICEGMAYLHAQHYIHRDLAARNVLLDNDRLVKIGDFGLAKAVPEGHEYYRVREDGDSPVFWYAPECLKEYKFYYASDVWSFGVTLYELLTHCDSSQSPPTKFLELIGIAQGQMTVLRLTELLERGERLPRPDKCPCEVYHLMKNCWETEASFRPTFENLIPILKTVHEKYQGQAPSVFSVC
T2 sequence (O60674 whole entry): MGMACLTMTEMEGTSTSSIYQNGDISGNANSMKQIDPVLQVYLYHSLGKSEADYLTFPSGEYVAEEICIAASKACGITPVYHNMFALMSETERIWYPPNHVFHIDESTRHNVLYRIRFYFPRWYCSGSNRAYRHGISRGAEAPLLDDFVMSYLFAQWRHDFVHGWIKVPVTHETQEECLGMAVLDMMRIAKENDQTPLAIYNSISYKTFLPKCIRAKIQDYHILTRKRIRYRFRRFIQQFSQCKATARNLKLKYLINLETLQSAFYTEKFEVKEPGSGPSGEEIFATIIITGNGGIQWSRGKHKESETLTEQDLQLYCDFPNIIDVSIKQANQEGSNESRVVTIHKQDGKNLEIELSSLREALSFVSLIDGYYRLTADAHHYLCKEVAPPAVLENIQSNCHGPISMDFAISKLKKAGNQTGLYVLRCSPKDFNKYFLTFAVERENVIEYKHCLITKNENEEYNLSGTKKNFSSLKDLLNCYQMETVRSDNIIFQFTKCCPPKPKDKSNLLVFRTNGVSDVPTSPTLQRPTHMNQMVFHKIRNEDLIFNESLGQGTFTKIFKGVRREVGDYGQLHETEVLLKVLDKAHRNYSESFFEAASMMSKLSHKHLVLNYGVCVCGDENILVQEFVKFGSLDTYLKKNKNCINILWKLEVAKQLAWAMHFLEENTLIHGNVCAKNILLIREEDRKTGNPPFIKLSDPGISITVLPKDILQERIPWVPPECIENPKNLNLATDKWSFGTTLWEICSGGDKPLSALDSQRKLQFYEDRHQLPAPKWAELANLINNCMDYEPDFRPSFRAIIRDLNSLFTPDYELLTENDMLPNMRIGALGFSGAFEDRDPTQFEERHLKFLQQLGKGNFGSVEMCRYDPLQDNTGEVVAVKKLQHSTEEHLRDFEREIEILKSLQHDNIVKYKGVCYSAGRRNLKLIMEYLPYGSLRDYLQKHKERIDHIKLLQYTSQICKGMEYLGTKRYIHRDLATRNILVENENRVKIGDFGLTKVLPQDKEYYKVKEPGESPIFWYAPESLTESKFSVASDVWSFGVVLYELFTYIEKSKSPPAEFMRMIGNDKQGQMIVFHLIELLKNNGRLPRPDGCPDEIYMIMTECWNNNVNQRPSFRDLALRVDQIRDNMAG
T1 sequence (P23458 whole entry): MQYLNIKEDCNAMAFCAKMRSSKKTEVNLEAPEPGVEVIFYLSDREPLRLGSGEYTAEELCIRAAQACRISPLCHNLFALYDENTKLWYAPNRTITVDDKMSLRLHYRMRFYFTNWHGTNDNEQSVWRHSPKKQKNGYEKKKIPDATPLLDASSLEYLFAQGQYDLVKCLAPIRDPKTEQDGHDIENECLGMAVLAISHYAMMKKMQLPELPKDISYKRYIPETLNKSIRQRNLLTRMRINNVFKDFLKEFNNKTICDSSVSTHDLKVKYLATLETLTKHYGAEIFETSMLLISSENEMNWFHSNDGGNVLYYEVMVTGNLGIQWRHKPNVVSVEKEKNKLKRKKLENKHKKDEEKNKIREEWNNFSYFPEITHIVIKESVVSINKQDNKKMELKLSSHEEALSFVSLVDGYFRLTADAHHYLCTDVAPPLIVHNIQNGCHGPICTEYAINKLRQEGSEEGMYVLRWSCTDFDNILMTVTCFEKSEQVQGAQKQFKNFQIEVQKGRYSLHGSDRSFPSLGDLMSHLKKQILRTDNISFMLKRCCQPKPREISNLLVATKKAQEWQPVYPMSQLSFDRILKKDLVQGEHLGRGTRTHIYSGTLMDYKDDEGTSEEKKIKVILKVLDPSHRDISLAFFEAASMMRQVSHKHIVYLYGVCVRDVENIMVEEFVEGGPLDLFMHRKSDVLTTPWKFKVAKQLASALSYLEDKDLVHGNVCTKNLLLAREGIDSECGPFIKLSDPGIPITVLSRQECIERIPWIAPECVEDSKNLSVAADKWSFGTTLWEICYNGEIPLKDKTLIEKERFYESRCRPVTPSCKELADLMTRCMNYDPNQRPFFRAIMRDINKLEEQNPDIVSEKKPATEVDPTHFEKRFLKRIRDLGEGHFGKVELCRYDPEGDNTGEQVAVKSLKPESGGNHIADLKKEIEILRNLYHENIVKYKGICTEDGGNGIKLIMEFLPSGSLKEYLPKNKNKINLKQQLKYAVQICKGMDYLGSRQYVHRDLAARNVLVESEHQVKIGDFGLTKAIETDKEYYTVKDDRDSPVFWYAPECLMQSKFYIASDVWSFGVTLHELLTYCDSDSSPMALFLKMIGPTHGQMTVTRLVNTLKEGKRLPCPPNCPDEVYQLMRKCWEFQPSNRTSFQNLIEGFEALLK

pIC50 [4] | pIC50 [5] | pIC50 [6] | pIC50 [7] | Selectivity ratio over JAK2, JAK1 [4] | SMILES | spontaneous autoimmune diabetes development [1] | severity of GVHD [2] | efficacy in organ transplantation model [3]
> 7.00 | 6.00 to 7.00 | 6.00 to 7.00 | > 7.00 | JAK1 = 23 | Cn1cc(Nc2ncc(Cl)c(NC[C@H]3CCN(S(C)(=O)=O)C3)n2)cn1 [Example 24, (R)-5-chloro-N^2-(1-methyl-1H-pyrazol-4-yl)-N^4-((1-(methylsulfonyl)pyrrolidin-3-yl)methyl)pyrimidine-2,4-diamine] |  |  | 
6.00 to 7.00 | < 5.00 | 6.00 to 7.00 | < 5.00 | JAK1 = 23 | CN1CCCC1CNc1nc(Nc2cnn(C)c2)ncc1Cl (centres unmarked) [Example 62, 5-chloro-N^2-(1-methyl-1H-pyrazol-4-yl)-N^4-((1-methylpyrrolidin-2-yl)methyl)pyrimidine-2,4-diamine] |  |  | 

Further lines, the molecule ahead of its results:

SMILES | pIC50 [4] | pIC50 [5] | pIC50 [6] | pIC50 [7] | Selectivity ratio over JAK2, JAK1 [4] | spontaneous autoimmune diabetes development [1] | severity of GVHD [2] | efficacy in organ transplantation model [3]
COc1cc2ncnc(Nc3ccc(O)cc3)c2cc1OC [JANEX-1] |  |  |  |  |  | prevent spontaneous autoimmune diabetes development | attenuate the severity of GVHD | 
C[C@@H]1CCN(C(=O)CC#N)C[C@@H]1N(C)c1ncnc2[nH]ccc12 [CP-690,550] |  |  |  |  |  |  |  | efficacy
CC(=O)N1CC(CNc2nc(Nc3cnn(C)c3)ncc2Cl)C1 [Example 16, 1-(3-(((5-chloro-2-((1-methyl-1H-pyrazol-4-yl)amino)pyrimidin-4-yl)amino)methyl)azetidin-1-yl)ethanone] | < 5.00 | < 5.00 | < 5.00 | < 5.00 |  |  |  | 
